Here are results for one compound from patent US6420569B1, “Process for producing pyrone compounds” (Sumitomo Chemical Company, Limited, priority 2000, dated 2002).

The test system of this assay is houseflies (Musca domestica). Description: Knock-down test against housefly. Particulars: 0.5% oil solution, 0.7 ml sprayed in 70 cm-cubic glass chamber; ten adult houseflies; 15 minutes after application; two repetitions. The format is in vivo. The method, then: (Knock-down Test Against Housefly)
A half part of 4-hydroxy-6-methyl-3-(4-methylpentanoyl)-2-pyrone was dissolved in 10 parts of dichloromethane and mixed with 89.5 parts of Isopar M (isoparaffin produced by Exxon Chemical) for preparing 0.5% oil solution. Part(s) means part(s) by weight.
Ten adult houseflies (Musca domestica) including 5 males and 5 females were released in a 70 cm-cubic glass chamber (volume: […]). By a spray-gun, 0.7 ml of the above oil solution was applied at a pressure of 0.9 kg/cm^2 from a small window on the wall of the chamber. After 15 minutes from application, knocked-down houseflies were observed. As a result of two repetitions, the knocked-down ratio was 95%.

Consider `Cc1cc(O)c(C(=O)CCC(C)C)c(=O)o1` [4-Hydroxy-6-methyl-3-(4-methylpentanoyl)-2-pyrone], for which the knocked-down ratio is 95%.
